Assay results reported in patent publication US6344344B1, “Method for producing uridine-5'-monophosphate by fermentation using mutant strains of coryneform bacteria” (Ajinomoto Co., Inc., priority 1999, dated 2002).
Like-named read-outs stand apart in the source and are kept apart here.

What was measured:
Assay type in all cases: cell-based
[1] = test system: Corynebacterium ammoniagenes ATCC 6872; assay: Growth of the strain in the presence of pyrimidine analogues; conditions: basal agar medium A
[2] = test system: Corynebacterium ammoniagenes LK 40-2 (VKPM B-7811); assay: as above
Method: Corynebacterium ammoniagenes VKPM B-6307 was treated with 50 μg/ml of NTG for 20 minutes followed by ampicillin-enrichment procedure for obtaining mutants which could not utilize uridine effectively as a sole carbon source (uridine was added into liquid medium A of Table 2 instead of glucose). The obtained mutant cells were plated on a medium B of Table 2 supplemented with guanine (100 μg/ml), arginine (500 μg/ml), casamino acids (200 μg/ml) and 100 μg/ml of 5-fluorouridine.
The inoculated plates were incubated at 30° C. for 3 days.
The extent of resistance to various pyrimidine analogues of this strain as well as that of the parent strain VKPM B-6307 is shown in Table 4.
(§1) Extent of resistance of this strain to various pyrimidine analogues as well as that of the parent strains LK 40-2 and LK 75-15 is shown in Table 11.

[3] = test system: Corynebacterium ammoniagenes VKPM B-6307; conditions: for Growth of the strains B-6307: basal agar medium A; for Growth of the strain VKPM B-6307 With addition (medium B): medium B (guanine, arginine, casamino acid added)
[4] = test system: Corynebacterium ammoniagenes LK 75-66 (VKPM B-7813); assay: Growth of the strain in the presence of pyrimidine analogues
Text: as §1

[5] = test system: Corynebacterium ammoniagenes LK 75-15 (VKPM B-7812); assay: as above
Text: as §1

[6] = test system: Corynebacterium ammoniagenes LK 75-15 (VKPM B-7812); assay: as above; remark: listed apart in the source
[7] = medium B with 100 μg/ml analogue, 30° C., 3 days

SMILES: O=c1cn[nH]c(=O)[nH]1 [6-Azauracil]
- Growth of the strains ATCC6872 ([1]; analogue 500 μg/ml): −
- Growth of the strains ATCC6872 ([1]; analogue 1000 μg/ml): −
- Growth of the strains ATCC6872 ([1]; analogue 3000 μg/ml): −
- Growth of the strains ATCC6872 ([1]; analogue 5000 μg/ml): −
- Growth of the strain LK 40-2 ([2]; Table 4, analogue 1000 μg/ml): +
- Growth of the strain LK 40-2 ([2]; Table 11, analogue 1000 μg/ml): +
- Growth of the strain B-6307 ([3]; Table 4, analogue 1000 μg/ml): −
- Growth of the strain B-6307 ([3]; Table 8, analogue 1000 μg/ml): −
- Growth of the strains B-6307 ([3]; analogue 500 μg/ml): +
- Growth of the strains B-6307 ([3]; analogue 1000 μg/ml): +
- Growth of the strains B-6307 ([3]; analogue 3000 μg/ml): +
- Growth of the strains B-6307 ([3]; analogue 5000 μg/ml): +
- Growth of the Strain LK 75-66 ([4]; Table 11, analogue 1000 μg/ml): +
- Growth of the Strain LK 75-15 ([5]; Table 11, analogue 1000 μg/ml): +
- Growth of the Strain LK 75-15 ([6]; Table 8, analogue 1000 μg/ml): +

SMILES: O=c1[nH]cc(F)c(=O)[nH]1 [5-Fluorouracil]
- Growth of the strains ATCC6872 ([1]; analogue 50 μg/ml): −
- Growth of the strains ATCC6872 ([1]; analogue 100 μg/ml): −
- Growth of the strains ATCC6872 ([1]; analogue 200 μg/ml): −
- Growth of the strains ATCC6872 ([1]; analogue 600 μg/ml): −
- Growth of the strain LK 40-2 ([2]; Table 4, analogue 100 μg/ml): +
- Growth of the strain LK 40-2 ([2]; Table 4, analogue 300 μg/ml): +
- Growth of the strain LK 40-2 ([2]; Table 4, analogue 500 μg/ml): +
- Growth of the strain LK 40-2 ([2]; Table 4, analogue 1000 μg/ml): +
- Growth of the strain LK 40-2 ([2]; Table 11, analogue 100 μg/ml): +
- Growth of the strain LK 40-2 ([2]; Table 11, analogue 300 μg/ml): +
- Growth of the strain LK 40-2 ([2]; Table 11, analogue 500 μg/ml): +
- Growth of the strain LK 40-2 ([2]; Table 11, analogue 1000 μg/ml): +
- Growth of the strain B-6307 ([3]; Table 4, analogue 100 μg/ml): −
- Growth of the strain B-6307 ([3]; Table 4, analogue 300 μg/ml): −
- Growth of the strain B-6307 ([3]; Table 4, analogue 500 μg/ml): −
- Growth of the strain B-6307 ([3]; Table 4, analogue 1000 μg/ml): −
- Growth of the strain B-6307 ([3]; Table 8, analogue 100 μg/ml): −
- Growth of the strain B-6307 ([3]; Table 8, analogue 300 μg/ml): −
- Growth of the strain B-6307 ([3]; Table 8, analogue 500 μg/ml): −
- Growth of the strain B-6307 ([3]; Table 8, analogue 1000 μg/ml): −
- Growth of the strains B-6307 ([3]; analogue 50 μg/ml): +
- Growth of the strains B-6307 ([3]; analogue 100 μg/ml): +
- Growth of the strain VKPM B-6307 No addition (medium A) ([3]; analogue 100 μg/ml): +
- Growth of the strain VKPM B-6307 With addition (medium B) ([3]; analogue 100 μg/ml): −
- Growth of the strains B-6307 ([3]; analogue 200 μg/ml): +
- Growth of the strain VKPM B-6307 No addition (medium A) ([3]; analogue 200 μg/ml): +
- Growth of the strain VKPM B-6307 With addition (medium B) ([3]; analogue 200 μg/ml): −
- Growth of the strain VKPM B-6307 No addition (medium A) ([3]; analogue 500 μg/ml): +
- Growth of the strain VKPM B-6307 With addition (medium B) ([3]; analogue 500 μg/ml): −
- Growth of the strains B-6307 ([3]; analogue 600 μg/ml): +
- Growth of the strain VKPM B-6307 No addition (medium A) ([3]; analogue 1000 μg/ml): +
- Growth of the strain VKPM B-6307 With addition (medium B) ([3]; analogue 1000 μg/ml): −
- Growth of the Strain LK 75-66 ([4]; Table 11, analogue 100 μg/ml): +
- Growth of the Strain LK 75-66 ([4]; Table 11, analogue 300 μg/ml): +
- Growth of the Strain LK 75-66 ([4]; Table 11, analogue 500 μg/ml): −
- Growth of the Strain LK 75-66 ([4]; Table 11, analogue 1000 μg/ml): −
- Growth of the Strain LK 75-15 ([5]; Table 11, analogue 100 μg/ml): +
- Growth of the Strain LK 75-15 ([5]; Table 11, analogue 300 μg/ml): −
- Growth of the Strain LK 75-15 ([5]; Table 11, analogue 500 μg/ml): −
- Growth of the Strain LK 75-15 ([5]; Table 11, analogue 1000 μg/ml): −
- Growth of the Strain LK 75-15 ([6]; Table 8, analogue 100 μg/ml): +
- Growth of the Strain LK 75-15 ([6]; Table 8, analogue 300 μg/ml): −
- Growth of the Strain LK 75-15 ([6]; Table 8, analogue 500 μg/ml): −
- Growth of the Strain LK 75-15 ([6]; Table 8, analogue 1000 μg/ml): −

SMILES: O=c1cc[nH]c(=S)[nH]1 [2-Thiouracil]
- Growth of the strains ATCC6872 ([1]; analogue 500 μg/ml): −
- Growth of the strains ATCC6872 ([1]; analogue 1000 μg/ml): −
- Growth of the strains ATCC6872 ([1]; analogue 3000 μg/ml): −
- Growth of the strains ATCC6872 ([1]; analogue 5000 μg/ml): −
- Growth of the strain LK 40-2 ([2]; Table 4, analogue 1000 μg/ml): +
- Growth of the strain LK 40-2 ([2]; Table 11, analogue 1000 μg/ml): +
- Growth of the strain B-6307 ([3]; Table 4, analogue 1000 μg/ml): −
- Growth of the strain B-6307 ([3]; Table 8, analogue 1000 μg/ml): −
- Growth of the strains B-6307 ([3]; analogue 500 μg/ml): +
- Growth of the strains B-6307 ([3]; analogue 1000 μg/ml): +
- Growth of the strains B-6307 ([3]; analogue 3000 μg/ml): +
- Growth of the strains B-6307 ([3]; analogue 5000 μg/ml): +
- Growth of the Strain LK 75-66 ([4]; Table 11, analogue 1000 μg/ml): +
- Growth of the Strain LK 75-15 ([5]; Table 11, analogue 1000 μg/ml): +
- Growth of the Strain LK 75-15 ([6]; Table 8, analogue 1000 μg/ml): +

SMILES: O=c1[nH]c(=O)n([C@@H]2O[C@H](CO)[C@@H](O)[C@H]2O)cc1F [5-Fluouridine]
- Growth of the strains ATCC6872 ([1]; analogue 100 μg/ml): −
- Growth of the strains ATCC6872 ([1]; analogue 200 μg/ml): −
- Growth of the strains ATCC6872 ([1]; analogue 400 μg/ml): −
- Growth of the strains ATCC6872 ([1]; analogue 600 μg/ml): −
- Growth of the strain LK 40-2 ([2]; Table 4, analogue 100 μg/ml): +
- Growth of the strain LK 40-2 ([2]; Table 4, analogue 300 μg/ml): +
- Growth of the strain LK 40-2 ([2]; Table 4, analogue 500 μg/ml): +
- Growth of the strain LK 40-2 ([2]; Table 4, analogue 1000 μg/ml): +
- Growth of the strain LK 40-2 ([2]; Table 11, analogue 100 μg/ml): +
- Growth of the strain LK 40-2 ([2]; Table 11, analogue 300 μg/ml): +
- Growth of the strain LK 40-2 ([2]; Table 11, analogue 500 μg/ml): +
- Growth of the strain LK 40-2 ([2]; Table 11, analogue 1000 μg/ml): +
- growth of strain LK 40-2 on supplemented medium [2, 7]: capable of growing
- Growth of the strain B-6307 ([3]; Table 4, analogue 100 μg/ml): −
- Growth of the strain B-6307 ([3]; Table 4, analogue 300 μg/ml): −
- Growth of the strain B-6307 ([3]; Table 4, analogue 500 μg/ml): −
- Growth of the strain B-6307 ([3]; Table 4, analogue 1000 μg/ml): −
- Growth of the strain B-6307 ([3]; Table 8, analogue 100 μg/ml): −
- Growth of the strain B-6307 ([3]; Table 8, analogue 300 μg/ml): −
- Growth of the strain B-6307 ([3]; Table 8, analogue 500 μg/ml): −
- Growth of the strain B-6307 ([3]; Table 8, analogue 1000 μg/ml): −
- Growth of the strains B-6307 ([3]; analogue 100 μg/ml): +
- Growth of the strain VKPM B-6307 No addition (medium A) ([3]; analogue 100 μg/ml): +
- Growth of the strain VKPM B-6307 With addition (medium B) ([3]; analogue 100 μg/ml): −
- Growth of the strains B-6307 ([3]; analogue 200 μg/ml): +
- Growth of the strain VKPM B-6307 No addition (medium A) ([3]; analogue 200 μg/ml): +
- Growth of the strain VKPM B-6307 With addition (medium B) ([3]; analogue 200 μg/ml): −
- Growth of the strains B-6307 ([3]; analogue 400 μg/ml): +
- Growth of the strain VKPM B-6307 No addition (medium A) ([3]; analogue 500 μg/ml): +
- Growth of the strain VKPM B-6307 With addition (medium B) ([3]; analogue 500 μg/ml): −
- Growth of the strains B-6307 ([3]; analogue 600 μg/ml): +
- Growth of the strain VKPM B-6307 No addition (medium A) ([3]; analogue 1000 μg/ml): +
- Growth of the strain VKPM B-6307 With addition (medium B) ([3]; analogue 1000 μg/ml): −
- growth of the parent strain on supplemented medium [3, 7]: could not grow
- Growth of the Strain LK 75-66 ([4]; Table 11, analogue 100 μg/ml): +
- Growth of the Strain LK 75-66 ([4]; Table 11, analogue 300 μg/ml): +
- Growth of the Strain LK 75-66 ([4]; Table 11, analogue 500 μg/ml): +
- Growth of the Strain LK 75-66 ([4]; Table 11, analogue 1000 μg/ml): −
- Growth of the Strain LK 75-15 ([5]; Table 11, analogue 100 μg/ml): +
- Growth of the Strain LK 75-15 ([5]; Table 11, analogue 1000 μg/ml): −
- Growth of the Strain LK 75-15 ([6]; Table 8, analogue 100 μg/ml): +
- Growth of the Strain LK 75-15 ([6]; Table 8, analogue 300 μg/ml): +
- Growth of the Strain LK 75-15 ([6]; Table 8, analogue 500 μg/ml): −
- Growth of the Strain LK 75-15 ([6]; Table 8, analogue 1000 μg/ml): −
- Growth of the Strain LK 75-15 ([6]; Table 11, analogue 300 μg/ml): +
- Growth of the Strain LK 75-15 ([6]; Table 11, analogue 500 μg/ml): −
